For orientation: IC50 means the concentration at which inhibition is half-maximal. Read a high IC50 as weaker potency.

This note sets out measurements from ChEMBL document CHEMBL3714766, “Tetrahydroisoquinoline compounds and their use as pyruvate dehydrogenase kinase inhibitors” (2015).

The target of the test is Pyruvate dehydrogenase kinase (Homo sapiens, UniProt Q15119+Q15120+Q16654+Q15118). The test is described as follows: Binding affinity to pyruvate dehydrogenase kinase (unknown origin) by VER-00160364 probe based fluorescence polarization assay. (In general: Polarisation of emitted light reports the rotation of a fluorescent probe.)
Molecule `Cc1cnc(NC2CCCC2)nc1-c1ccc2c(c1)CC[C@H](C)N2C(=O)c1ccc(O)cc1O` came in with an IC50 of 1000 nM.
For `C[C@H]1CCc2cc(-c3nc4ccccc4nc3C(F)(F)F)ccc2N1C(=O)c1ccc(O)cc1O`, the IC50 stood at 100 nM.
As to `COc1ccc(-c2ccc3c(c2)CC[C@H](C)N3C(=O)c2ccc(O)cc2O)c(Cl)c1`, the IC50 is 1000 nM.
To `C[C@H]1CCc2cc(-c3ccc(N4CCCC4)nn3)ccc2N1C(=O)c1ccc(O)cc1O` belongs 100 nM.
Molecule `Cc1nccn1-c1ccc(-c2ccc3c(c2)CC[C@H](C)N3C(=O)c2ccc(O)cc2O)nn1` came in with an IC50 of 100 nM. This counts as sub-micromolar.
Consider `C[C@H]1CCc2cc(-c3nc(C(F)(F)F)nc4ccccc34)ccc2N1C(=O)c1ccc(O)cc1O`, for which the 50% inhibitory concentration (IC50) was determined as 1000 nM.
`C[C@H]1CCc2cc(-c3cc4occc4cn3)ccc2N1C(=O)c1ccc(O)cc1O` gave an IC50 of 100 nM. Compared with the last molecule, the IC50 is about 10-fold lower.
On to `C[C@H]1CCc2cc(-c3nc(-c4ccsc4)nc4ccccc34)ccc2N1C(=O)c1ccc(O)cc1O`, for which the IC50 was 1000 nM.
Next, `C[C@H]1CCc2cc(-c3nc4ccc(Cl)cc4cc3CO)ccc2N1C(=O)c1ccc(O)cc1O`: 100 nM.
For the molecule `C[C@H]1CCc2cc(-c3cc4cncnc4[nH]3)ccc2N1C(=O)c1ccc(O)cc1O`, the IC50 came to 10 nM. Against the preceding molecule, the IC50 is about 10-fold lower.
`CNc1ccc(-c2ccc3c(c2)CC[C@H](C)N3C(=O)c2ccc(O)cc2O)c(C)n1` showed an IC50 of 100 nM.
Turning to `Cc1cncnc1-c1ccc2c(c1)CC[C@H](C)N2C(=O)c1ccc(O)cc1O`, the IC50 amounted to 100 nM.
Next, `Cc1cc(Cl)nnc1-c1ccc2c(c1)CC[C@H](C)N2C(=O)c1ccc(O)cc1O`: 10 nM; `Cc1cc(-c2ccc3c(c2)CC[C@H](C)N3C(=O)c2ccc(O)cc2O)nnc1Cl`: 100 nM; `C[C@H]1CCc2cc(-c3nncc4ccccc34)ccc2N1C(=O)c1ccc(O)cc1O`: 100 nM.
To `C[C@H]1CCc2cc(-c3ncnc4ccc(Cl)cc34)ccc2N1C(=O)c1ccc(O)cc1O` belongs 100 nM; to `Cc1cc(S(=O)(=O)N2CCCC2)cnc1-c1ccc2c(c1)CC[C@H](C)N2C(=O)c1ccc(O)cc1O`, 100 nM.
Molecule `CCc1nccnc1-c1ccc2c(c1)CC[C@H](C)N2C(=O)c1ccc(O)cc1O` showed a half-maximal inhibitory concentration (IC50) of 100 nM.
For the molecule `C[C@H]1CCc2cc(-c3nc4cc(Cl)ccc4o3)ccc2N1C(=O)c1ccc(O)cc1O`, the IC50 stood at 10000 nM.
For the molecule `CC(=O)Nc1ccc(-c2ccc3c(c2)CC[C@H](C)N3C(=O)c2ccc(O)cc2O)c(C)n1`, the IC50 came to 100 nM.
Take `Cc1cc(S(=O)(=O)N(C)C)cnc1-c1ccc2c(c1)CC[C@H](C)N2C(=O)c1ccc(O)cc1O`: the IC50 is recorded as 10 nM. Against the preceding molecule, the IC50 is about 10-fold lower.
As to `Cc1cc2cc(F)ccc2nc1-c1ccc2c(c1)CC[C@H](C)N2C(=O)c1ccc(O)cc1O`, the IC50 stood at 1000 nM. This IC50 lies about 100-fold higher than the previous one.
With `C[C@H]1CCc2cc(-c3ccc(OCCN4CCCC4)nn3)ccc2N1C(=O)c1ccc(O)cc1O`, the concentration for half-maximal inhibition (IC50) stood at 1000 nM.
For `Cc1ccc(-c2ccc3c(c2)CC[C@H](C)N3C(=O)c2ccc(O)cc2O)c(Cl)c1`, the IC50 worked out at 1000 nM.
Next, `C[C@H]1CCc2cc(-c3cc4nccnc4cn3)ccc2N1C(=O)c1ccc(O)cc1O`: 100 nM; `Cc1ccc[n+]([O-])c1-c1ccc2c(c1)CC[C@H](C)N2C(=O)c1ccc(O)cc1O`: 100 nM.
For `CCCc1cncnc1-c1ccc2c(c1)CC[C@H](C)N2C(=O)c1ccc(O)cc1O`, the IC50 worked out at 100 nM.
Molecule `C[C@H]1CCc2cc(-c3ccc(N)nn3)ccc2N1C(=O)c1ccc(O)cc1O` returned an IC50 of 100 nM. In other words, the sub-micromolar range.
In the case of `C[C@H]1CCc2cc(-c3nc(-c4ccccc4)nc4ccccc34)ccc2N1C(=O)c1ccc(O)cc1O`, the IC50 is 1000 nM.
For `Cc1cc(-c2ccc3c(c2)CC[C@H](C)N3C(=O)c2ccc(O)cc2O)cnc1Cl`, the IC50 is 1000 nM.
`C[C@H]1CCc2cc(-c3ncccc3CO)ccc2N1C(=O)c1ccc(O)cc1O` returned an IC50 of 100 nM.
Consider `C[C@H]1CCc2cc(-c3cnc4ccccc4n3)ccc2N1C(=O)c1ccc(O)cc1O`, for which the IC50 stood at 1000 nM. Against the preceding molecule, the IC50 is about 10-fold higher.
Molecule `Cc1cc(S(=O)(=O)NCc2ccccc2)cnc1-c1ccc2c(c1)CC[C@H](C)N2C(=O)c1ccc(O)cc1O` had an IC50 of 10 nM. Compared with the last molecule, the IC50 is about 100-fold lower.
Molecule `CCOc1ccc2nc(-c3ccc4c(c3)CC[C@H](C)N4C(=O)c3ccc(O)cc3O)c(C)cc2c1` came in with a half-maximal inhibitory concentration (IC50) of 1000 nM.
The molecule `C[C@H]1CCc2cc(-c3ccc(-n4ccnc4)nn3)ccc2N1C(=O)c1ccc(O)cc1O` displayed an IC50 of 100 nM.
As to `COc1cc(-c2ccc3c(c2)CC[C@H](C)N3C(=O)c2ccc(O)cc2O)cnc1OC`, the IC50 was determined as 100 nM.
Molecule `C[C@H]1CCc2cc(-c3nc(C(N)=O)nc4ccccc34)ccc2N1C(=O)c1ccc(O)cc1O` gave an IC50 of 100 nM.
`Cc1cnc(C)c(-c2ccc3c(c2)CC[C@H](C)N3C(=O)c2ccc(O)cc2O)n1` came in with an IC50 of 100 nM.
For `CCc1cc2ccccc2nc1-c1ccc2c(c1)CC[C@H](C)N2C(=O)c1ccc(O)cc1O`, the IC50 is 1000 nM. Compared with the last molecule, the IC50 is about 10-fold higher.
Next, `Cc1cn(-c2ccc(-c3ccc4c(c3)CC[C@H](C)N4C(=O)c3ccc(O)cc3O)nn2)cn1`: 100 nM.
To `CSc1nc2c(c(-c3ccc4c(c3)CC[C@H](C)N4C(=O)c3ccc(O)cc3O)n1)CCC2` belongs 1000 nM; to `CCOC(=O)c1nc(-c2ccc3c(c2)CC[C@H](C)N3C(=O)c2ccc(O)cc2O)c2ccccc2n1`, 100 nM.
The molecule `Cc1c(-c2ccc3c(c2)CC[C@H](C)N3C(=O)c2ccc(O)cc2O)ccc2[nH]ncc12` returned an IC50 of 1000 nM. This IC50 is about 10-fold higher than that of the molecule before.
As to `C[C@H]1CCc2cc(-c3ccc(-c4ccccc4)cn3)ccc2N1C(=O)c1ccc(O)cc1O`, the IC50 amounted to 10000 nM.
To `COc1ccccc1-c1ccc2c(c1)CC[C@H](C)N2C(=O)c1ccc(O)cc1O` belongs 100 nM; to `COc1ccc2nc(-c3ccc4c(c3)CC[C@H](C)N4C(=O)c3ccc(O)cc3O)c(C)cc2c1`, 100 nM.
To `CNc1nnc(-c2ccc3c(c2)CC[C@H](C)N3C(=O)c2ccc(O)cc2O)c2ccccc12` belongs 100 nM.
On to `C[C@H]1CCc2cc(-c3ncncc3C#N)ccc2N1C(=O)c1ccc(O)cc1O`, for which the IC50 came to 100 nM.
`CSc1nc(Cl)cc(-c2ccc3c(c2)CC[C@H](C)N3C(=O)c2ccc(O)cc2O)n1` returned an IC50 of 1000 nM.
For `CC(=O)Nc1ccc(-c2ccc3c(c2)CC[C@H](C)N3C(=O)c2ccc(O)cc2O)c(C)c1`, the half-maximal inhibitory concentration (IC50) is 100 nM.
As to `Cc1cc2cc(Cl)ccc2nc1-c1ccc2c(c1)CC[C@H](C)N2C(=O)c1ccc(O)cc1O`, the IC50 was 1000 nM.
Regarding `C[C@H]1CCc2cc(-c3cccc(C#N)c3)ccc2N1C(=O)c1ccc(O)cc1O`, the IC50 turned out to be 1000 nM.
`C[C@H]1CCc2cc(-c3ccncc3C(F)(F)F)ccc2N1C(=O)c1ccc(O)cc1O`: the IC50 was found to be 100 nM.
`C[C@H]1CCc2cc(-c3ccc(-c4ccccc4Cl)cn3)ccc2N1C(=O)c1ccc(O)cc1O` came in with an IC50 of 10000 nM.
Consider `NC(=O)COc1ccc2c(c1)CCCN2C(=O)c1ccc(O)cc1O`, for which the IC50 worked out at 1000 nM.
With `C[C@H]1CCc2cc(-c3nc4ccccc4cc3CO)ccc2N1C(=O)c1ccc(O)cc1O`, the half-maximal inhibitory concentration (IC50) is given as 100 nM.
To `C[C@H]1CCc2cc(-c3ccccc3Cl)ccc2N1C(=O)c1ccc(O)cc1O` belongs 1000 nM.
`CCOC(=O)c1nc(C)nc(-c2ccc3c(c2)CC[C@H](C)N3C(=O)c2ccc(O)cc2O)c1C` yielded an IC50 of 1000 nM.
The molecule `Cc1nc(NS(C)(=O)=O)ccc1-c1ccc2c(c1)CC[C@H](C)N2C(=O)c1ccc(O)cc1O` registered an IC50 of 100 nM.
In turn, `Cc1cc(S(=O)(=O)NCc2ccn(C)n2)cnc1-c1ccc2c(c1)CC[C@H](C)N2C(=O)c1ccc(O)cc1O` yielded an IC50 of 100 nM.
For the molecule `Cc1ccc(C)c(-c2ccc3c(c2)CC[C@H](C)N3C(=O)c2ccc(O)cc2O)n1`, the IC50 is on record as 100 nM.
Next, `Cc1cc(-c2ccc3c(c2)CC[C@H](C)N3C(=O)c2ccc(O)cc2O)cnc1N`: 100 nM.
On to `Cc1cc(S(=O)(=O)N2CCCCC2)cnc1-c1ccc2c(c1)CC[C@H](C)N2C(=O)c1ccc(O)cc1O`, for which the IC50 stood at 10 nM.
Turning to `Cc1cc(CNc2ccc(-c3ccc4c(c3)CC[C@H](C)N4C(=O)c3ccc(O)cc3O)c(C)n2)on1`, the IC50 stood at 100 nM.
To `C[C@H]1CCc2cc(-c3ccc(Cl)cc3Cl)ccc2N1C(=O)c1ccc(O)cc1O` belongs 1000 nM; to `COc1cc2ncnc(-c3ccc4c(c3)CC[C@H](C)N4C(=O)c3ccc(O)cc3O)c2cc1OC`, 1000 nM.
To `CNc1nccc(-c2ccc3c(c2)CC[C@H](C)N3C(=O)c2ccc(O)cc2O)n1` belongs 100 nM; to `Cc1cnc(OCCN(C)C)nc1-c1ccc2c(c1)CC[C@H](C)N2C(=O)c1ccc(O)cc1O`, 100 nM; to `COc1ccc(OC)c(-c2ccc3c(c2)CC[C@H](C)N3C(=O)c2ccc(O)cc2O)c1`, 1000 nM.
Turning to `COc1cc(-c2ccc3c(c2)CC[C@H](C)N3C(=O)c2ccc(O)cc2O)ncn1`, the IC50 worked out at 1000 nM.
As for `C[C@H]1CCc2cc(-c3ccc(NC4CC4)nn3)ccc2N1C(=O)c1ccc(O)cc1O`, the 50% inhibitory concentration (IC50) is 1000 nM.
Next, `Cc1nc(-c2ccc3c(c2)CC[C@H](C)N3C(=O)c2ccc(O)cc2O)c2ccccc2n1`: 100 nM; `Cc1ncc(C)c(-c2ccc3c(c2)CC[C@H](C)N3C(=O)c2ccc(O)cc2O)n1`: 10 nM.
`Cc1cc2cccc(C)c2nc1-c1ccc2c(c1)CC[C@H](C)N2C(=O)c1ccc(O)cc1O` yielded an IC50 of 1000 nM.
Molecule `C[C@H]1CCc2cc(-c3ccc(N4CCOCC4)nn3)ccc2N1C(=O)c1ccc(O)cc1O` showed an IC50 of 1000 nM.
To `Cc1cc(S(=O)(=O)NCCN(C)C)cnc1-c1ccc2c(c1)CC[C@H](C)N2C(=O)c1ccc(O)cc1O` belongs 10 nM; to `Cc1cc2ccc(F)cc2nc1-c1ccc2c(c1)CC[C@H](C)N2C(=O)c1ccc(O)cc1O`, 100 nM.
For `C[C@H]1CCc2cc(-c3ccc(Cl)nc3)ccc2N1C(=O)c1ccc(O)cc1O`, the IC50 was found to be 1000 nM.
To `Cc1nccnc1-c1ccc2c(c1)CC[C@H](C)N2C(=O)c1ccc(O)cc1O` belongs 100 nM.
